Values after ≈ are worked out from the molar mass of the structure shown.
Experiments:
[1] = Inhibition of PIM in human KG-1 cells assessed as reduction in PS6 level; assay type: cell-based
KG-1 [2] = assay: Cytotoxicity against human KG-1 cells assessed as reduction in cell viability; assay type: functional, cell-based
[3] = Permeability in human Caco2/TC7 cells at 5 uM; assay type: ADME, cell-based; conditions: Caco-2, read-out: permeability
[4] = target: Serine/threonine-protein kinase pim-2 (Homo sapiens, UniProt Q9P1W9); assay: Inhibition of PIM2 (unknown origin)
[5] = Oral bioavailability in rat at 10 mg/kg; assay type: ADME, organism-based; conditions: in vivo
[6] = Free plasma concentration in human KG-1 tumor bearing mouse at 25 mg/kg, po measured after 8 hrs; assay type: ADME, organism-based; conditions: in vivo
[7] = Free plasma concentration in human KG-1 tumor bearing mouse at 25 mg/kg, po measured after 24 hrs; assay type: ADME, organism-based; conditions: in vivo
[8] = target: Voltage-gated inwardly rectifying potassium channel KCNH2 (Homo sapiens, UniProt Q12809); assay: Inhibition of human ERG by patch clamp assay
[9] = Thermodynamic solubility in pH 7.4 buffer; assay type: physicochemical; conditions: read-out: Therm_solubility
[10] = Cmax in rat at 3 mg/kg, iv; assay type: ADME, organism-based; parameters: route intravenous, dose 3 mg/kg; conditions: in vivo
[11] = Half life in rat at 3 mg/kg, iv; assay type: ADME, organism-based; conditions: in vivo
[12] = Clearance in rat at 3 mg/kg, iv; assay type: ADME, organism-based; conditions: in vivo
[13] = Volume of distribution at steady state in rat at 3 mg/kg, iv; assay type: ADME, organism-based; conditions: in vivo, read-out: Vdss
KG-1 [14] = assay: Antitumor activity against human KG-1 tumor bearing mouse assessed as reduction BAD phosphorylation at 25 mg/kg, po measured after 8 hrs; assay type: functional; conditions: KG-1, po
KG-1 [15] = assay: Antitumor activity against human KG-1 tumor bearing mouse assessed as reduction BAD phosphorylation at 25 mg/kg, po measured after 24 hrs; assay type: functional; conditions: KG-1, po
KG-1 [16] = assay: Antitumor against human KG-1 cells xenografted in mouse assessed as tumor volume at 150 mg/kg, po administered BID for 3 weeks relative to control; assay type: functional
KG-1 [17] = assay: Antitumor against human KG-1 cells xenografted in mouse assessed as tumor growth inhibition at 150 mg/kg, po administered BID for 3 weeks; assay type: functional; conditions: KG-1, po, 504 h, read-out: TGI
[18] = Toxicity in mouse xenografted with human KG-1 cells assessed as reduction in body weight at 50 to 150 mg/kg, po administered bid for 3 weeks; assay type: organism-based; parameters: scale not given: the % may be the effect or the level left; conditions: in vivo, 504 h, dose 50-150 mg/kg
KG-1 [19] = assay: Antitumor against human KG-1 cells xenografted in mouse assessed as tumor volume at 100 mg/kg, po administered BID for 3 weeks relative to control; assay type: functional
KG-1 [20] = assay: Antitumor against human KG-1 cells xenografted in mouse assessed as tumor volume at 50 mg/kg, po administered BID for 3 weeks relative to control; assay type: functional
[21] = Unbound fraction in human KG-1 tumor bearing mouse plasma at 25 mg/kg, po; assay type: ADME, organism-based
[22] = Free tumor concentration in human KG-1 tumor bearing mouse at 25 mg/kg, po measured after 8 hrs; assay type: ADME, organism-based, Neoplasm; conditions: in vivo
[23] = Free tumor concentration in human KG-1 tumor bearing mouse at 25 mg/kg, po measured after 24 hrs; assay type: ADME, organism-based, Neoplasm; conditions: in vivo

Chain of Serine/threonine-protein kinase pim-2 (Q9P1W9 whole entry): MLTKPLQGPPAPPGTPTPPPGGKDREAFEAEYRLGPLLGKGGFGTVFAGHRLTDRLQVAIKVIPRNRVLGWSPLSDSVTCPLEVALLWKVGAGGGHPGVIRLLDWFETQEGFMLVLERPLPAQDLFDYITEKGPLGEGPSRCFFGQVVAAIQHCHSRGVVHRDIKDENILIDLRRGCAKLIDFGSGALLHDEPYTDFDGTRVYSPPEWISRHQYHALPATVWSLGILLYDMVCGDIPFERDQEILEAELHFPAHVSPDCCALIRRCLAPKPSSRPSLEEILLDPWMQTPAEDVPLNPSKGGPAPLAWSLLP
Chain of Voltage-gated inwardly rectifying potassium channel KCNH2 (Q12809 whole entry): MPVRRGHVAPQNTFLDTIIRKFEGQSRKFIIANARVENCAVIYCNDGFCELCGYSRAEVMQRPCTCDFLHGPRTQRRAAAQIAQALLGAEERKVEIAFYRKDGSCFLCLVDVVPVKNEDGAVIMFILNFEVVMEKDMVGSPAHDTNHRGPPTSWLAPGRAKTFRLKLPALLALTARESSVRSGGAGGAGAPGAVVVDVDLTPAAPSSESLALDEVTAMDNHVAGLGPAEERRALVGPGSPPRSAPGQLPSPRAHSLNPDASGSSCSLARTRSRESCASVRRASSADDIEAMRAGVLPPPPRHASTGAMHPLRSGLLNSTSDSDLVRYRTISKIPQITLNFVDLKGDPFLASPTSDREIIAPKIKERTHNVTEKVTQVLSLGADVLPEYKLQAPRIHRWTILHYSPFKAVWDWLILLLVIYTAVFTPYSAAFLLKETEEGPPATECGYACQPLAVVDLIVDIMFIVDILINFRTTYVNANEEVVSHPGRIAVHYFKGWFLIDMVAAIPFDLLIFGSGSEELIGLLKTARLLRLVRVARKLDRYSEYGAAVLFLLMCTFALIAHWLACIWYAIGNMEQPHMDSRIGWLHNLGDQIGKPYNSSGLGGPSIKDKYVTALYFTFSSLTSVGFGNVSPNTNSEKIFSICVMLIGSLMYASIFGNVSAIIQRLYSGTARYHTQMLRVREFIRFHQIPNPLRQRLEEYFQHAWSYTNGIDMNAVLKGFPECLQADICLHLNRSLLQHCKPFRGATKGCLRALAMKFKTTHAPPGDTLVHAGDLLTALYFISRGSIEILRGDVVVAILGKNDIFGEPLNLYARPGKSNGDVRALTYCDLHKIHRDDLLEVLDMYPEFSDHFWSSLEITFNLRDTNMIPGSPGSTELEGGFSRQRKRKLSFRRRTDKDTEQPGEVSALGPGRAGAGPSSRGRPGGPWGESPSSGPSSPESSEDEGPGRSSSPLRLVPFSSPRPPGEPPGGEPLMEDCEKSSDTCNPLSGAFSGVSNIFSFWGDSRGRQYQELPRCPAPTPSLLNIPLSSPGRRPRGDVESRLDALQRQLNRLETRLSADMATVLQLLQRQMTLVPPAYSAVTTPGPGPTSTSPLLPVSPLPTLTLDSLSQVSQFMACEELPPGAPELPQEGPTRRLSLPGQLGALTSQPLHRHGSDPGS

SMILES: Cc1cn([C@H](C)[C@H]2CCNC[C@@H]2F)c2nc(C(N)=O)cc(Cl)c12 (racemic)
- EC50 [1]: 0.052 µM
- EC50 (KG-1 [2]): 0.051 µM
- Papp at 5 µM [3]: 71 nm/s

SMILES: Cc1cn([C@@H](C)[C@@]2(F)CCNC2)c2nc(C(N)=O)cc(Cl)c12 (stereo in doubt)
- IC50 [4]: 0.16 µM
- EC50 [1]: 0.876 µM
- EC50 (KG-1 [2]): 0.808 µM

SMILES: Cc1cn([C@@H](C)[C@@H]2CCNC[C@@H]2F)c2nc(C(N)=O)cc(Cl)c12 (racemic)
- EC50 [1]: 0.115 µM
- EC50 (KG-1 [2]): 0.195 µM
- Papp at 5 µM [3]: 17 nm/s

SMILES: Cc1cn([C@H](C)[C@@H]2CCNC[C@H]2F)c2nc(C(N)=O)cc(Cl)c12 (racemic)
- EC50 [1]: 0.024 µM
- EC50 (KG-1 [2]): 0.02 µM
- Papp at 5 µM [3]: 120 nm/s

SMILES: Cc1cn([C@H](C)[C@@]2(F)CCNC2)c2nc(C(N)=O)cc(Cl)c12 (stereo in doubt)
- IC50 [4]: 1.78 µM
- EC50 (KG-1 [2]): 7.23 µM

SMILES: Cc1cn([C@@H](C)[C@H]2CCNC[C@H]2F)c2nc(C(N)=O)cc(Cl)c12 (racemic)
- EC50 [1]: 0.006 µM
- EC50 (KG-1 [2]): 0.017 µM
- Papp at 5 µM [3]: 15 nm/s

SMILES: Cc1cn([C@@H](C)[C@]2(F)CCNC2)c2nc(C(N)=O)cc(Cl)c12 (stereo in doubt)
- bioavailability [5]: 59%
- Cp(f) [6]: 0.24 µM
- Cp(f) [7]: 0.054 µM
- IC50 [4]: 0.006 µM
- EC50 [1]: 0.071 µM
- EC50 (KG-1 [2]): 0.061 µM
- Papp at 5 µM [3]: 23 nm/s
- IC50 [8]: 22 µM
- solubility thermodynamic [9]: 6.8 mM (≈ 2210 µg/mL)
- Cmax [10]: 0.174 µg/mL
- half-life [11]: 2.7 h
- clearance [12]: 4.5 L/h/kg
- Vd [13]: 9.9 L/kg
- inhibition in vivo at 25 mg/kg (KG-1 [14]): 65%
- inhibition in vivo at 25 mg/kg (KG-1 [15]): 55%
- T/C (KG-1 [16]): 13.1%
- inhibition in vivo at 150 mg/kg (KG-1 [17]): 87%
- Activity [18]: > 15%
- T/C (KG-1 [19]): 50.7%
- T/C (KG-1 [20]): 56.1%
- fraction unbound [21]: 0.055
- Drug uptake(free) [22]: 720 nM
- Drug uptake(free) [23]: 120 nM

SMILES: Cc1cn([C@H](C)[C@]2(F)CCNC2)c2nc(C(N)=O)cc(Cl)c12 (stereo in doubt)
- IC50 [4]: 0.515 µM
- EC50 [1]: 2.03 µM
- EC50 (KG-1 [2]): 9.07 µM
- Papp at 5 µM [3]: 18 nm/s
- IC50 [8]: 30 µM
